Measurements taken from ChEMBL document CHEMBL1201862, “PubChem BioAssay data set” (2004).
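Results reflect a 48-hour exposure of cells in 96-well plates to compound at five concentrations. GI50 is the concentration that inhibits growth by half.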 The source made the active and inactive calls. No stated cut-off is given here; in the data, active = GI50 up to about 1.1 µM and inactive = higher.

Assays:
Assay in all cases: NCI anticancer screen, dose series, 48 h
[1] = test system: A498
[2] = test system: DLD-1
[3] = test system: DU-145
[4] = test system: HCT-116
[5] = test system: HT-29
[6] = test system: M14
[7] = test system: MDA-MB-231
[8] = test system: NCI-H226
[9] = test system: NCI-H23
[10] = test system: OVCAR-4
[11] = test system: SF-295
[12] = test system: SK-MEL-28
[13] = test system: SK-MEL-5
[14] = test system: SNB-19
[15] = test system: TK-10
[16] = test system: K562
[17] = test system: LOX IMVI
[18] = test system: OVCAR-5
[19] = test system: SK-MEL-2
[20] = test system: SK-OV-3

Row | SMILES | GI50 [1] | GI50 [2] | GI50 [3] | GI50 [4] | GI50 [5] | GI50 [6] | GI50 [7] | GI50 [8] | GI50 [9] | GI50 [10] | GI50 [11] | GI50 [12] | GI50 [13] | GI50 [14] | GI50 [15] | GI50 [16] | GI50 [17] | GI50 [18] | GI50 [19] | GI50 [20]
1 | C/C=C1\NC(=O)[C@H]2CSSCCC=C[C@H](CC(=O)N[C@H](C(C)C)C(=O)N2)OC(=O)[C@H](C(C)C)NC1=O | 0.00015 µM (active) | 0.0217 µM (active) | 0.0455 nM (active) | 9.2e-05 µM (active) | 0.000131 µM (active) | 0.000299 µM (active) | 0.0243 nM (active) | 0.000123 µM (active) | 0.000125 µM (active) | 0.00201 µM (active) | 0.000117 µM (active) | 9.98e-05 µM (active) | 6.65e-05 µM (active) | 0.000116 µM (active) | 0.000226 µM (active) |  |  |  |  | 
2 | S=c1sc2cscc2s1 | 71.6 µM (inactive) | 21 µM (inactive) |  | 19.5 µM (inactive) | 44.1 µM (inactive) | 19.1 µM (inactive) |  | 15.5 µM (inactive) | 28.8 µM (inactive) | 16.4 µM (inactive) | 54.1 µM (inactive) | 21.9 µM (inactive) | 27.9 µM (inactive) | 21.3 µM (inactive) | 23 µM (inactive) | 42.6 µM (inactive) | 39.8 µM (inactive) | 69.2 µM (inactive) | 38 µM (inactive) | 27.5 µM (inactive)
